Measurements from PubChem BioAssay AID212 (DTP/NCI, 2004).
Where “and” joins values, the source holds several entries; their conditions need not be identical. Equal entries are not always repeated. Results filed as inconclusive are left out.

System: BDF1 mice, colon carcinoma 38 sc, T/C %
Assay: NCI In Vivo Anticancer Drug Screen. Data for tumor model Colon Carcinoma 38 (subcutaneous) in B6D2F1 (BDF1) mice
Settings: endpoint: median tumor weight (est.), higher = larger tumour
How it was run: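 T/C readout: treated group (T) measurement over vehicle control group (C) measurement. Endpoint is survival or tumor size in mice bearing a transplanted tumor.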

[1] = dose: 6.25 mg/kg/injection, schedule: Q07DX002 (ip), vehicle: saline with Tween-80
[2] = dose: 12.5 mg/kg/injection, schedule: Q07DX002 (ip), vehicle: saline with Tween-80
[3] = dose: 50.0 mg/kg/injection, schedule: Q07DX002 (ip), vehicle: saline with Tween-80
[4] = dose: 50.0 mg/kg/injection, schedule: Q07DX002 (ip), vehicle: saline
[5] = dose: 1.0 mg/kg/injection, schedule: Q07DX002 (ip), vehicle: Klucel (hydroxypropylcellulose) (HPC)
[6] = dose: 4.0 mg/kg/injection, schedule: Q07DX002 (ip), vehicle: Klucel (hydroxypropylcellulose) (HPC)
[7] = dose: 4.0 mg/kg/injection, schedule: Q07DX003 (ip), vehicle: Klucel (hydroxypropylcellulose) (HPC)
[8] = dose: 8.0 mg/kg/injection, schedule: Q07DX002 (ip), vehicle: Klucel (hydroxypropylcellulose) (HPC)
[9] = dose: 25.0 mg/kg/injection, schedule: Q07DX002 (ip), vehicle: saline with Tween-80
[10] = dose: 12.5 mg/kg/injection, schedule: Q07DX002 (ip), vehicle: saline
[11] = dose: 100.0 mg/kg/injection, schedule: Q07DX002 (ip), vehicle: saline with Tween-80
[12] = dose: 400.0 mg/kg/injection, schedule: Q07DX002 (ip), vehicle: saline with Tween-80

Compound: Nc1ccc(S(=O)(=O)c2ccc(N)cc2)cc1
- T/C [1]: 154 % of control
- T/C [2]: 111 % of control
- T/C [3]: 85 % of control and 92 % of control
- T/C (dose: 56.0 mg/kg/injection, schedule: Q07DX002 (ip), vehicle: saline with Tween-80): 109 % of control
- T/C (dose: 450.0 mg/kg/injection, schedule: Q07DX002 (ip), vehicle: saline with Tween-80): 87 % of control
- T/C (dose: 900.0 mg/kg/injection, schedule: Q07DX002 (ip), vehicle: saline with Tween-80): 71 % of control

Compound: O=C1OC(C(O)CO)C(O)=C1O (centres undefined)
- T/C [4]: 43 % of control
- T/C (dose: 100.0 mg/kg/injection, schedule: Q07DX002 (ip), vehicle: saline): 100 % of control
- T/C (dose: 800.0 mg/kg/injection, schedule: Q07DX002 (ip), vehicle: saline): 83 % of control
- T/C (dose: 1600.0 mg/kg/injection, schedule: Q07DX002 (ip), vehicle: saline): 100 % of control

Compound: C[C@@H]1C(=O)C[C@H]2C(C)(C)CCC[C@]2(C)[C@@]1(O)CCc1ccoc1
- T/C (dose: 50.0 mg/kg/injection, schedule: Q07DX002 (ip), vehicle: Klucel (hydroxypropylcellulose) (HPC)): 74 % of control
- T/C (dose: 200.0 mg/kg/injection, schedule: Q07DX002 (ip), vehicle: Klucel (hydroxypropylcellulose) (HPC)): 84 % of control
- T/C (dose: 400.0 mg/kg/injection, schedule: Q07DX002 (ip), vehicle: Klucel (hydroxypropylcellulose) (HPC)): 67 % of control

Compound: N/C(=N\O)c1cn(C2OC(CO)C(O)C2O)c2ncnc(N)c12 (centres undefined)
- T/C [5]: 72 % of control
- T/C (dose: 2.0 mg/kg/injection, schedule: Q07DX002 (ip), vehicle: Klucel (hydroxypropylcellulose) (HPC)): 82 % of control
- T/C [6]: 79 % of control
- T/C [7]: 6 % of control
- T/C [8]: 91 % of control
- T/C (dose: 8.0 mg/kg/injection, schedule: Q07DX003 (ip), vehicle: Klucel (hydroxypropylcellulose) (HPC)): 17 % of control
- T/C (dose: 16.0 mg/kg/injection, schedule: Q07DX002 (ip), vehicle: Klucel (hydroxypropylcellulose) (HPC)): 93 % of control
- T/C (dose: 16.0 mg/kg/injection, schedule: Q07DX003 (ip), vehicle: Klucel (hydroxypropylcellulose) (HPC)): 7 % of control

Compound: Cc1cc2c(=O)cc(-c3ccccc3Cl)oc2c(C(=O)O)c1C
- T/C (dose: 100.0 mg/kg/injection, schedule: Q07DX002 (ip), vehicle: sodium bicarbonate): 56 % of control
- T/C (dose: 200.0 mg/kg/injection, schedule: Q07DX002 (ip), vehicle: sodium bicarbonate): 35 % of control
- T/C (dose: 400.0 mg/kg/injection, schedule: Q07DX002 (ip), vehicle: sodium bicarbonate): 40 % of control

Compound: c1ccc2c(c1)nnn1c3cnccc3nc21
- T/C (dose: 3.12 mg/kg/injection, schedule: Q07DX002 (ip), vehicle: saline with Tween-80): 63 % of control and 88 % of control
- T/C [9]: 82 % of control and 85 % of control

Compound: N=C(N)SCc1c2ccccc2c(CSC(=N)N)c2ccccc12
- T/C (dose: 6.25 mg/kg/injection, schedule: Q07DX002 (ip), vehicle: suspension in saline): 63 % of control
- T/C [10]: 93 % of control and 100 % of control
- T/C (dose: 12.5 mg/kg/injection, schedule: Q07DX002 (ip), vehicle: suspension in saline): 92 % of control
- T/C (dose: 25.0 mg/kg/injection, schedule: Q07DX002 (ip), vehicle: suspension in saline): 83 % of control
- T/C [4]: 71 % of control and 89 % of control
- T/C (dose: 50.0 mg/kg/injection, schedule: Q07DX002 (ip), vehicle: suspension in saline): 64 % of control
- T/C (dose: 100.0 mg/kg/injection, schedule: Q07DX002 (ip), vehicle: suspension in saline): 115 % of control
- T/C (dose: 200.0 mg/kg/injection, schedule: Q07DX002 (ip), vehicle: suspension in saline): 97 % of control

Compound: OCC1OC(n2cnc3cc(Cl)c(Cl)cc32)C(O)C1O (centres undefined)
- T/C [2]: 101 % of control
- T/C [9]: 98 % of control
- T/C [3]: 105 % of control
- T/C [11]: 98 % of control

Compound: O=S(=O)(CCl)OCCCl
- T/C [2]: 103 % of control
- T/C [9]: 111 % of control
- T/C [3]: 58 % of control
- T/C [11]: 55 % of control

Compound: CO[C@@]12[C@H](COC(N)=O)C3=C(C(=O)C(C)=C(N)C3=O)N1C[C@@H]1N[C@@H]12
- T/C (dose: 0.5 mg/kg/injection, schedule: Q07DX002 (ip), vehicle: saline): 62 % of control and 70 % of control
- T/C (dose: 0.5 mg/kg/injection, schedule: Q07DX002 (ip), vehicle: water): 90 % of control
- T/C (dose: 1.0 mg/kg/injection, schedule: Q07DX002 (ip), vehicle: clinical formulation): 85 % of control
- T/C (dose: 1.0 mg/kg/injection, schedule: Q07DX002 (ip), vehicle: saline): 58 % of control and 61 % of control
- T/C (dose: 1.0 mg/kg/injection, schedule: Q07DX002 (ip), vehicle: water): 80 % of control
- T/C (dose: 2.0 mg/kg/injection, schedule: Q07DX002 (ip), vehicle: clinical formulation): 84 % of control
- T/C (dose: 2.0 mg/kg/injection, schedule: Q07DX002 (ip), vehicle: saline): 35 % of control and 51 % of control
- T/C (dose: 2.0 mg/kg/injection, schedule: Q07DX002 (ip), vehicle: water): 30 % of control
- T/C (dose: 3.75 mg/kg/injection, schedule: Q07DX002 (oral), vehicle: water): 112 % of control
- T/C (dose: 4.0 mg/kg/injection, schedule: Q07DX002 (ip), vehicle: clinical formulation): 20 % of control
- T/C (dose: 4.0 mg/kg/injection, schedule: Q07DX002 (ip), vehicle: saline): 8 % of control and 22 % of control
- T/C (dose: 4.0 mg/kg/injection, schedule: Q07DX002 (ip), vehicle: water): 13 % of control
- T/C (dose: 7.5 mg/kg/injection, schedule: Q07DX002 (oral), vehicle: water): 93 % of control
- T/C (dose: 15.0 mg/kg/injection, schedule: Q07DX002 (oral), vehicle: water): 21 % of control
- T/C (dose: 30.0 mg/kg/injection, schedule: Q07DX002 (oral), vehicle: water): 28 % of control

Compound: O=C(Nc1ccc(C2=NCCN2)cc1)c1ccc(C(=O)Nc2ccc(C3=NCCN3)cc2)c(Cl)c1
- T/C [1]: 117 % of control
- T/C [2]: 117 % of control
- T/C [3]: 118 % of control

Compound: COC1C=CC23c4cc5c(cc4C(O)OC2CN(C)C3C1)OCO5 (centres undefined)
- T/C (dose: 18.75 mg/kg/injection, schedule: Q07DX002 (ip), vehicle: suspension in saline): 91 % of control
- T/C (dose: 37.5 mg/kg/injection, schedule: Q07DX002 (ip), vehicle: suspension in saline): 82 % of control
- T/C (dose: 75.0 mg/kg/injection, schedule: Q07DX002 (ip), vehicle: suspension in saline): 105 % of control

Compound: C=C(C)C(=NC(C)(C)C)Nc1ccccc1
- T/C [2]: 100 % of control
- T/C [9]: 101 % of control
- T/C [3]: 103 % of control
- T/C (dose: 200.0 mg/kg/injection, schedule: Q07DX002 (ip), vehicle: saline with Tween-80): 108 % of control
- T/C [12]: 100 % of control

Compound: N=C(N)c1ccc(/C=C/c2ccc(C(=N)N)cc2O)cc1
- T/C (dose: 6.25 mg/kg/injection, schedule: Q07DX002 (ip), vehicle: water): 86 % of control
- T/C (dose: 12.5 mg/kg/injection, schedule: Q07DX002 (ip), vehicle: water): 95 % of control
- T/C (dose: 25.0 mg/kg/injection, schedule: Q07DX002 (ip), vehicle: water): 112 % of control
- T/C (dose: 100.0 mg/kg/injection, schedule: Q07DX002 (ip), vehicle: water): 108 % of control

Compound: CC1CC(C)CC(C)C(O)/C(C#N)=C/C=C/CC(C2CCCC2C(=O)O)OC(=O)CC(O)C(C)C1 (centres undefined)
- T/C (dose: 0.13 mg/kg/injection, schedule: Q07DX003 (ip), vehicle: Klucel (hydroxypropylcellulose) (HPC)): 84 % of control
- T/C (dose: 0.25 mg/kg/injection, schedule: Q07DX003 (ip), vehicle: Klucel (hydroxypropylcellulose) (HPC)): 80 % of control
- T/C (dose: 0.5 mg/kg/injection, schedule: Q07DX003 (ip), vehicle: Klucel (hydroxypropylcellulose) (HPC)): 113 % of control
- T/C [5]: 92 % of control
- T/C (dose: 1.0 mg/kg/injection, schedule: Q07DX003 (ip), vehicle: Klucel (hydroxypropylcellulose) (HPC)): 93 % of control
- T/C (dose: 2.0 mg/kg/injection, schedule: Q07DX003 (ip), vehicle: Klucel (hydroxypropylcellulose) (HPC)): 69 % of control
- T/C [6]: 106 % of control
- T/C [7]: 88 % of control
- T/C [8]: 75 % of control

Compound: CCOC(=O)c1cn(C)c2c1C(O)=C(C(=O)OC)CC(=O)N2
- T/C [3]: 81 % of control
- T/C [11]: 119 % of control
- T/C [12]: 88 % of control
- T/C (dose: 800.0 mg/kg/injection, schedule: Q07DX002 (ip), vehicle: saline with Tween-80): 97 % of control

Compound: CC1(C)OC(=O)N(CO)C1=O
- T/C [10]: 162 % of control
- T/C (dose: 25.0 mg/kg/injection, schedule: Q07DX002 (ip), vehicle: saline): 94 % of control
- T/C [4]: 120 % of control and 123 % of control
- T/C (dose: 400.0 mg/kg/injection, schedule: Q07DX002 (ip), vehicle: saline): 257 % of control
